Experimental data from patent publication US20260234165A1, “MACROCYCLIC COMPOUNDS, PREPARATION METHOD THEREFOR, AND USE THEREOF” (GENFLEET THERAPEUTICS (SHANGHAI) INC., priority 2004, published 2026).
Counter-ions that a name gives are not always drawn. Like-named read-outs stand apart in the source and are kept apart here.

How the values were obtained:
Assay type in all cases: cell-based, human
[1] = tested on: p-ERK in AsPC-1 cells (KRAS G12D mutation); test: Cell p-ERK assay (HTRF) in AsPC-1 cells; conditions: Homo sapiens, ASPC1, 3 h
Method in brief: (§1)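 In this cellular format, endogenous KRAS-mutant lines grown in RPMI-1640 plus 10% FBS received graded compound concentrations for 3 h at 37 °C. Lysates were incubated 4 h with the phospho-T202/Y204 ERK HTRF antibody pair, and percent inhibition relative to DMSO and blank wells was curve-fitted to give IC50.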

[2] = tested on: AsPC-1 cells (KRAS G12D mutation); test: 3D cell proliferation assay (CellTiter Glo-3D), AsPC-1; conditions: medium with 2% FBS, read-out: AsPC-1 AP IC50
Method in brief: (§2)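 Five-day treatment of NCI-H441 or AsPC-1 cells (800/well, 2% FBS RPMI-1640, 0.1% DMSO) with graded compound concentrations; ATP content by CellTiter-Glo 3D; IC50 fitted.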

[3] = tested on: p-ERK in NCI-H441 cells (KRAS G12V mutation); test: Cell p-ERK assay (HTRF) in NCI-H441 cells
Method in brief: as §1

NCI-H441 cells = test: 3D cell proliferation assay (CellTiter Glo-3D), NCI-H441; conditions: medium with 2% FBS, read-out: H441 AP IC50
Method in brief: as §2

[4] = AsPC-1 cells, 3 h compound incubation, HTRF p-ERK T202/Y204, read-out: AsPC-1 p-ERK IC50
[5] = Homo sapiens, ASPC1, 3D cell proliferation (CellTiter Glo-3D)
[6] = Homo sapiens, NCI-H441, 3 h, NCI-H441 cells, 3 h compound incubation, HTRF p-ERK T202/Y204, read-out: H441 p-ERK IC50
[7] = Homo sapiens, NCI-H441, 3D cell proliferation (CellTiter Glo-3D)
[8] = 3D cell proliferation (CellTiter Glo-3D)

IC50 [1, 4] | IC50 [2, 5] | IC50 [3, 6] | IC50 (NCI-H441 cells; [7]) | IC50 [2, 8] | IC50 ([3]; NCI-H441 cells, 3 h compound incubation, HTRF p-ERK T202/Y204, read-out: H441 p-ERK IC50) | IC50 (NCI-H441 cells; [8]) | SMILES | IC50 ([1]; read-out: AsPC-1 p-ERK IC50(nM)) | IC50 ([3]; Homo sapiens, NCI-H441, 3 h, read-out: H441 p-ERK IC50(nM)) | IC50 (NCI-H441 cells; Homo sapiens, 3D cell proliferation (CellTiter Glo-3D))
0.68 nM | 0.79 nM | 0.34 nM | 0.7 nM |  |  |  | CCn1c(-c2cc(C#CC(C)N3CCC3)cnc2[C@H](C)OC)c2c3cc(ccc31)-c1csc(n1)C[C@H](NC(=O)[C@H]1[C@H](C)[C@@H]1C)C(=O)N1CCC[C@H](N1)C(=O)OCC(C)(C)C2 (atropisomer, axis not shown; (Sa)) [Compound Z613-2, (1r,2R,3S)—N-((6^3S,4S,Z)-12-(5-(3-(azetidin-1-yl)but-1-yn-1-yl)-(Sa)-2-((S)-1-methoxyethyl)pyridin-3-yl)-4′-ethyl-10,10-dimethyl-5,7-dioxo-6^1,6^2,6^3,6^4,6^5,6^6-hexahydro-1^1H-8-oxa-2(4,2)-thiazola-(5,3)-indola-6(1,3)-pyridazinacycloundecaphane-4-yl)-2.3-dimethylcyclopropane-1-carboxamide] |  |  | 
16.3 nM |  |  |  | 53.4 nM | 9.1 nM | 19.7 nM | CO[C@@H](C)c1ncc(OCCN2CCOC3(CC3)C2)cc1-c1c2c3cc(ccc3n1CC(F)(F)F)-c1csc(n1)C[C@H](NC(=O)[C@H]1[C@H](C)[C@@H]1C)C(=O)N1CCC[C@H](N1)C(=O)OCC1(CC1)C2 [Compound Z350, (1r,2R,3S)—N-((3′S,4′S,Z)-2′-(5-(2-(4-oxa-7-azaspiro[2.5]octan-7-yl)ethoxy)-2-((S)-1-methoxyethyl)pyridin-3-yl)-5′,7′-dioxo-1′-(2,2,2-trifluoroethyl)spiro[cyclopropane-1,10′-8-oxa-2(4,2)-thiazola-1(5,3)-indola-6(1,3)-pyridazinacycloundecaphan]-4-yl)-2,3-dimethylcyclopropane-1-carboxamide] |  |  | 
1.3 nM | 3.19 nM | 0.67 nM | 0.59 nM |  |  |  | CCn1c(-c2cc(CC3(N4CCS(=O)(=O)CC4)CC3)cnc2[C@H](C)OC)c2c3cc(ccc31)-c1csc(n1)C[C@H](NC(=O)[C@H]1[C@H](C)[C@@H]1C)C(=O)N1CCC[C@H](N1)C(=O)OCC(C)(C)C2 (atropisomer, axis not shown; (Ra)) [Compound Z484, (1r,2R,3S)—N-((6^3S,4S,Z)—(Ra)-1^2-(5-((1-(1,1-dioxidothiomorpholino)cyclopropyl)methyl)-2-((S)-1-methoxyethyl)pyridin-3-yl)-1^1-ethyl-10,10-dimethyl-5,7-dioxo-6^1,6^2,6^3,6^4,6^5,6^6-hexahydro-1^1H-8-oxa-2(4,2)-thiazola-1(5,3)-indola-6(1.3)-pyridazinacycloundecaphane-4-yl)-2,3-dimethylcyclopropane-1-carboxamide] |  |  | 

SMILES | IC50 [1, 4] | IC50 [2, 5] | IC50 [3, 6] | IC50 (NCI-H441 cells; [7]) | IC50 [2, 8] | IC50 ([3]; NCI-H441 cells, 3 h compound incubation, HTRF p-ERK T202/Y204, read-out: H441 p-ERK IC50) | IC50 (NCI-H441 cells; [8]) | IC50 ([1]; read-out: AsPC-1 p-ERK IC50(nM)) | IC50 ([3]; Homo sapiens, NCI-H441, 3 h, read-out: H441 p-ERK IC50(nM)) | IC50 (NCI-H441 cells; Homo sapiens, 3D cell proliferation (CellTiter Glo-3D))
CCn1c(-c2cc(C#CCN3CCC(O)(c4cccc[n+]4[O-])CC3)cnc2[C@H](C)OC)c2c3cc(ccc31)-c1csc(n1)C[C@H](NC(=O)[C@H]1[C@H](C)[C@@H]1C)C(=O)N1CCC[C@H](N1)C(=O)OCC(C)(C)C2 (atropisomer, axis not shown; (Ra)) [Compound Z1047, 2-(1-(3-(5-((6^3S,4S,Z)-4-((1r,2R,3S)-2,3-dimethylcyclopropane-1-carboxamido)-1^1-ethyl-10,10-dimethyl-5,7-dioxo-6^1,6^2,6^3,6^4,6^5,6^6-hexahydro-1^1H-8-oxa-2(4,2)-thiazola-1(5,3)-indola-6(1,3)-pyridazinacycloundecaphane-1^2-yl)-(Ra)-6-((S)-1-methoxyethyl)pyridin-3-yl)prop-2-yn-1-yl)-4-hydroxypiperidin-4-yl)pyridine-1-oxide formate] |  | 0.37 nM |  |  |  |  |  | 0.24 nM | 0.22 nM | 0.24 nM
